Publication PMC10614203, “Synthesis, Structure–Activity Relationships, Radiofluorination, and Biological Evaluation of [^18F]RM365, a Novel Radioligand for Imaging the Human Cannabinoid Receptor Type 2 (CB2R) in the Brain with PET” (Journal of Medicinal Chemistry, 2023)
pIC50, pKd: −log10 of the molar value. Several values for one entry are separate records, joined by “and”; a condition that tells them apart may be missing. Identical values can stand only once.

Legend:
[1] = parameters: species or system mouse; conditions: female, in vivo
From the text: The biodistribution of [^18F]RM365 was investigated in vivo in mice (n = 4) and rats (n = 2) by dynamic PET imaging studies.
Among others, increasing activity in the duodenum over time and accumulation in the brown adipose tissue (BAT) were observed (Figure S10). In contrast, a slow washout from the salivary glands, muscle, bones, and kidneys could be observed. An initial comparably high TAC peak value with a SUVmean > 4 in the liver, left ventricle (blood), heart wall, and lung followed by a fast washout and a subsequent slower washout phase could be observed. Furthermore, we conclude a mainly hepatic excretion of the activity, as shown by the liver and jejunum TACs in both species and a bladder activity of 0.24 ± 0.19% of injected dose at 60 min in mice (Figures S8 and S10).
In vivo biodistribution studies of [^18F]RM365 were performed in female CD-1 mice (n = 4, 31 ± 3 g) and female Wistar rats (n = 4, 150 ± 11 g). For the uptake studies into the brain, male Wistar rats carrying the stereotactically injected AAV2/7-CaMKII0.4-intron-hCB2R(D80N) (right striatum) and AAV2/7-CaMKII0.4-intron-3flag-eGFP (control/contralateral, left striatum) were used (n = 6; bodyweights were 260 ± 11 g). Data were assessed by dynamic small animal PET (Nanoscan, Mediso, Budapest, Hungary) in 60 min recordings, followed by T1-weighted (GRE, TR/TE = 15.0/2.4 ms, 252/252, FA = 25°) MR imaging with whole-body coils for anatomical correlation and attenuation correction.
The PET scans were performed 3−4 months after the stereotactic injections. […] Nonparametric (semiquantitative) analysis of achieved time–activity curves (TACs) was performed with Microsoft Excel to determine the time to peak, the TAC peak value, and the area under the curve (AUC) [drawing 1] where c (radioactivity) is expressed as the standardized uptake value normalized to the bodyweight in g (SUV). […] Area under the curves (AUCs) and corresponding 95% confidence intervals (CIs, 95%) were calculated with GraphPad Prism (v.8.2) following the assumptions described by Gagnon et al.[39]

hCB2R = biological target: T1, hCB2R (Homo sapiens, UniProt P34972); experiment: Homologous competition binding of [18F]RM365 / RM365 on membranes of hCB2R-CHO cells
T1 construct: host or cells: CHO cells, stably transfected
From the text: To complement the indirect determination of the affinity of RM365 toward the CB2R in vitro, we performed a direct binding study with the radiofluorinated ligand using preparations of CHO cells stably transfected with the cloned human receptor and one spleen from a female SPRD rat expressing high levels of the receptor in the leukocytes.[12] The results of the homologous competition study shown in Figure 6 confirm the good affinity of [^18F]RM365 toward the human CB2R with a KD value of about 2 nM. […] Furthermore, the measurement signal obtained from the incubation of [^18F]RM365 with the homogenate of rat spleen was in the range of the values obtained for the nonspecific binding of the radioligand toward the preparation of CB2R-transfected CHO cells. We conclude that RM365 binds the rat CB2R with lower affinity than the human CB2R but expect no significant interactions of the radioligand with nonspecific binding sites.[82] […]
The nonspecific binding of the respective radioligand was determined by coincubation with CP55,940 (final concentration 10^–5 M). The normalized values of bound activity (% specific binding) were calculated and plotted vs the logarithm of the concentration of the respective test compound. […]

T1 sequence (P34972 whole entry): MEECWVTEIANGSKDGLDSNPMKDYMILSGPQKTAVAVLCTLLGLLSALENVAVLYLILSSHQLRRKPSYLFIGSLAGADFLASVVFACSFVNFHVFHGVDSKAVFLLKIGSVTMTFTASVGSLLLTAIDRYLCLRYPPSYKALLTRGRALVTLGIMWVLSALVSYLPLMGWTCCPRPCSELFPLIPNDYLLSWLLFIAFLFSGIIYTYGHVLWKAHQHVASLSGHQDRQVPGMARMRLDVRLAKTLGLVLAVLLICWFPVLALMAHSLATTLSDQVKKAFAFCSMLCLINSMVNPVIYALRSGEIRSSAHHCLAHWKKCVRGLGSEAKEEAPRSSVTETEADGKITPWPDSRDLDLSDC

initial TAC peak value (SUVmean) ([1]; CD-1 (mice), Wistar (rats), mouse): > 4 | SUV in spleen ([1]; CD-1, mouse): 0.7 ± 0.1 | bladder activity ([1]; CD-1, mouse, 60 min): 0.24 ± 0.19 % of injected dose | pIC50 (hCB2R; 0.078 nM [18F]RM365, increasing concentrations of RM365): 8.62 | pKd (hCB2R; 0.078 nM [18F]RM365, single experiment in triplicate, KD = IC50 - concentration radioligand): 8.63 and ~8.70
Compound: CC1(C)Cc2ccc(C#N)cc2[C@@H]1NC(=O)c1cc2cc([18F])ccc2[nH]1 [[^18F]RM365]
